Paper PMC10580393, “The Psychedelic N,N-Dipropyltryptamine Prevents Seizures in a Mouse Model of Fragile X Syndrome via a Mechanism that Appears Independent of Serotonin and Sigma1 Receptors” (ACS Pharmacology & Translational Science, 2023)
pEC50, pKi: −log10 of the molar value.

Assays:
Settings in all cases: read-out: DPT
[1] = target: T1, human 5-HT2A receptor (h5-HT2AR) (Homo sapiens, UniProt P28223); experiment: TRUPATH BRET2 G protein activation assay, HEK293T; assay type: cell-based
T1 construct: gene HTR2A; receptor cDNA (cDNA Resource Center) transiently expressed in HEK293T; with Rluc8-Galphaq, Gbeta3, GFP2-Ggamma9 for function
Source text: TRUPATH BRET2 G protein activation assay, HEK293T on human 5-HT2A receptor (h5-HT2AR)

[2] = target: T2, human 5-HT1B receptor (h5-HT1BR) (Homo sapiens, UniProt P28222); experiment: TRUPATH BRET2 G protein activation assay, HEK293T; assay type: cell-based
T2 construct: gene HTR1B; receptor cDNA (cDNA Resource Center) transiently expressed in HEK293T; with Rluc8-Galphai3, Gbeta3, GFP2-Ggamma9 for function
Source text: TRUPATH BRET2 G protein activation assay, HEK293T on human 5-HT1B receptor (h5-HT1BR)

[3] = target: T3, human 5-HT1A receptor (h5-HT1AR) (Homo sapiens, UniProt P08908); experiment: radioligand competition binding, cell membranes
T3 construct: gene HTR1A; receptor cDNA (cDNA Resource Center) transiently expressed in HEK293T; with Rluc8-Galphai3, Gbeta3, GFP2-Ggamma9 for function
Source text: radioligand competition binding, cell membranes on human 5-HT1A receptor (h5-HT1AR)

[4] = target: T1, human 5-HT2A receptor (h5-HT2AR); experiment: radioligand competition binding, cell membranes
Source text: radioligand competition binding, cell membranes on human 5-HT2A receptor (h5-HT2AR)

[5] = target: T3, human 5-HT1A receptor (h5-HT1AR); experiment: TRUPATH BRET2 G protein activation assay, HEK293T; assay type: cell-based
Source text: TRUPATH BRET2 G protein activation assay, HEK293T on human 5-HT1A receptor (h5-HT1AR)

[6] = target: T2, human 5-HT1B receptor (h5-HT1BR); experiment: radioligand competition binding, cell membranes
Source text: radioligand competition binding, cell membranes on human 5-HT1B receptor (h5-HT1BR)

T2 sequence (P28222 whole entry): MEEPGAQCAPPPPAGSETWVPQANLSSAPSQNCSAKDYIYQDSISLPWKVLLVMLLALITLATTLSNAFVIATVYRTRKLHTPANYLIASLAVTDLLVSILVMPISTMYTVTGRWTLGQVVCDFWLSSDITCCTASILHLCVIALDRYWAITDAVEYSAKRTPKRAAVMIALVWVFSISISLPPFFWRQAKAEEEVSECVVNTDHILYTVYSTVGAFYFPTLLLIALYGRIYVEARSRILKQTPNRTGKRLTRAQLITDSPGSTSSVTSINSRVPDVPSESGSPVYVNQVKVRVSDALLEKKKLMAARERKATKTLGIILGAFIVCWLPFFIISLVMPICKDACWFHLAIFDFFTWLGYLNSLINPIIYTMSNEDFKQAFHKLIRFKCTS
T1 sequence (P28223 whole entry): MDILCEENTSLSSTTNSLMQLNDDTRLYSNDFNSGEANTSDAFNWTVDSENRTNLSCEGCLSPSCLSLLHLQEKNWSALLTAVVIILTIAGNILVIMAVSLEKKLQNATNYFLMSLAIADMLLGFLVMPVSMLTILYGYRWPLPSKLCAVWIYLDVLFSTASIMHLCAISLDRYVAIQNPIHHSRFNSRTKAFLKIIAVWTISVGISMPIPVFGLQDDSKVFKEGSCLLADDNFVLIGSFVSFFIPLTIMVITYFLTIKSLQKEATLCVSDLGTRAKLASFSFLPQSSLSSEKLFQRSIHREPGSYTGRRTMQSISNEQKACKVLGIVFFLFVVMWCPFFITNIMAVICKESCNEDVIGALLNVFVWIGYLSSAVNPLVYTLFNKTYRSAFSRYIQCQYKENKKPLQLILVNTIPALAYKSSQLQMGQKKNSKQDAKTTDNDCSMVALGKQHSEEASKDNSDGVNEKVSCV
T3 sequence (P08908 whole entry): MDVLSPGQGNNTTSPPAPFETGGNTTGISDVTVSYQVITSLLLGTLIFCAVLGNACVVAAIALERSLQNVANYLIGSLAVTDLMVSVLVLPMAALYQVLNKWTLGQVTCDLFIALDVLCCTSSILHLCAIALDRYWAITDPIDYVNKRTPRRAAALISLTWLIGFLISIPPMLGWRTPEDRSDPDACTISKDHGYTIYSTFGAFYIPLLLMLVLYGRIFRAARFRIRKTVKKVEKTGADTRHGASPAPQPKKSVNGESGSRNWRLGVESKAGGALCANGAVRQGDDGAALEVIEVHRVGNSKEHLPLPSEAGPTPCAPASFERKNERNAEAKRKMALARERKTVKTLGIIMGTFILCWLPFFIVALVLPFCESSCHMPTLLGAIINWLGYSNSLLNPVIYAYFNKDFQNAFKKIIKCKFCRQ

CCCN(CCC)CCc1c[nH]c2ccccc12 [DPT]
pEC50 [1]: 6.35
pEC50 [2]: 5.92
pKi [3]: 5.78
pKi [4]: 8.52
pEC50 [5]: 5.61
pKi [6]: 5.09
